Test results taken from ChEMBL document CHEMBL1201862, “PubChem BioAssay data set” (2004).
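Where inhibition never reached the appropriate level, the endpoint shown equals the highest concentration tested. Otherwise, values were interpolated linearly from a five-concentration, 48-hour dose response in 96-well plates. Here, GI50 denotes the concentration required for 50% inhibition of growth.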 Calls of active or inactive are those of the source. Cut-off read from the data, not from the text of the source: active = GI50 up to about 1.1 µM and inactive = higher.

Assays:
Assay in all cases: NCI-60 cell line screen, 48 h
[1] = system: CAKI-1
[2] = system: HCC 2998
[3] = system: HCT-116
[4] = system: HL-60
[5] = system: HOP-62
[6] = system: HOP-92
[7] = system: HT-29
[8] = system: IGROV-1
[9] = system: KM12
[10] = system: LOX IMVI
[11] = system: MDA-MB-231
[12] = system: MDA-MB-435
[13] = system: NCI-H460
[14] = system: NCI/ADR-RES
[15] = system: OVCAR-3
[16] = system: OVCAR-8
[17] = system: SK-MEL-2
[18] = system: SN12C
[19] = system: T47D
[20] = system: TK-10

Row | SMILES | GI50 [1] | GI50 [2] | GI50 [3] | GI50 [4] | GI50 [5] | GI50 [6] | GI50 [7] | GI50 [8] | GI50 [9] | GI50 [10] | GI50 [11] | GI50 [12] | GI50 [13] | GI50 [14] | GI50 [15] | GI50 [16] | GI50 [17] | GI50 [18] | GI50 [19] | GI50 [20]
1 | O=C(O)c1[nH]c2c([N+](=O)[O-])cc([N+](=O)[O-])cc2c1C(=O)O | > 100 µM (inactive) | > 100 µM (inactive) | > 100 µM (inactive) | > 100 µM (inactive) | > 100 µM (inactive) | > 100 µM (inactive) | > 100 µM (inactive) | > 100 µM (inactive) | > 100 µM (inactive) | > 100 µM (inactive) | > 100 µM (inactive) | 52.1 µM (inactive) | > 100 µM (inactive) | > 100 µM (inactive) | > 100 µM (inactive) | > 100 µM (inactive) | > 100 µM (inactive) | > 100 µM (inactive) | > 100 µM (inactive) | > 100 µM (inactive)
2 | CN(C)CC1CC/C(=C\c2ccc(O)cc2)C1=O (stereo not given) | 1.63 µM (inactive) | 10.7 µM (inactive) | 2 µM (inactive) | 0.631 µM (active) | 18.5 µM (inactive) | 2.48 µM (inactive) | 3.04 µM (inactive) | 11.3 µM (inactive) | 4.18 µM (inactive) | 2.3 µM (inactive) | 4.14 µM (inactive) | 5.07 µM (inactive) | 17.5 µM (inactive) | 5.32 µM (inactive) | 3.67 µM (inactive) | 4.6 µM (inactive) | 8.28 µM (inactive) | 5.64 µM (inactive) | 2.14 µM (inactive) | 3.2 µM (inactive)
3 | C/C(=N\N=C(/S)N(C)C)c1cccc[n+]1[O-] | 32.4 µM (inactive) | 19.9 µM (inactive) | 0.489 µM (active) | 1.03 µM (active) | 18 µM (inactive) | 22.3 µM (inactive) | 3.05 µM (inactive) | 45.3 µM (inactive) | 45.5 µM (inactive) | 20.5 µM (inactive) | 2.99 µM (inactive) | 65.8 µM (inactive) | 33.6 µM (inactive) | 2.05 µM (inactive) | 5.12 µM (inactive) | 23.7 µM (inactive) | 38.5 µM (inactive) | 79.1 µM (inactive) | 0.413 µM (active) | 82.2 µM (inactive)
4 | O=C1C=C(Br)C(=O)C12CCc1ccccc12 (stereo not given) | 6.47 µM (inactive) | 22.3 µM (inactive) | 10.5 µM (inactive) | 2.69 µM (inactive) | 39 µM (inactive) | 13.5 µM (inactive) | 14.8 µM (inactive) | 20.5 µM (inactive) | 21.1 µM (inactive) | 12.5 µM (inactive) | 28.4 µM (inactive) | 14.7 µM (inactive) | 22.6 µM (inactive) | 27.7 µM (inactive) | 18.5 µM (inactive) | 14.9 µM (inactive) | 19.6 µM (inactive) | 17.3 µM (inactive) | 17.8 µM (inactive) | 17.8 µM (inactive)
5 | CC(=O)O[C@@H](C1C[C@@H](C)[C@H]2[C@@](O)(O1)[C@H](O)[C@@]1(C)C3=CC[C@H]4C(C)(C)[C@@H](OC5OCC(O)C(O)C5O)CC[C@@]45C[C@@]35CC[C@]21C)C(C)(C)O (stereo not given in full) | 38.7 µM (inactive) | 14.3 µM (inactive) | 18.1 µM (inactive) | 1.56 µM (inactive) | 32.7 µM (inactive) | 23.8 µM (inactive) | 25.8 µM (inactive) | 33.2 µM (inactive) | 22.5 µM (inactive) | 19.5 µM (inactive) | 18.3 µM (inactive) | 24 µM (inactive) | 18.2 µM (inactive) | 46.8 µM (inactive) | 20.7 µM (inactive) | 29.8 µM (inactive) | 18.6 µM (inactive) | 22.8 µM (inactive) | 23.7 µM (inactive) | 22.6 µM (inactive)
6 | OCCN1CCN(c2nc(N3CCCC3)c3nc(Cl)c(NCc4ccccc4)nc3n2)CC1 | 9.44 µM (inactive) | 1.93 µM (inactive) | 5.6 µM (inactive) | 3.81 µM (inactive) | 3.58 µM (inactive) | 5.16 µM (inactive) | 3.18 µM (inactive) | 8.43 µM (inactive) | 4.97 µM (inactive) | 5.4 µM (inactive) | 9.82 µM (inactive) | 3.98 µM (inactive) | 5.58 µM (inactive) | 10.9 µM (inactive) | 8.02 µM (inactive) | 8.77 µM (inactive) | 6.92 µM (inactive) | 10.4 µM (inactive) | 5.32 µM (inactive) | 6.85 µM (inactive)
7 | CCOC(=O)c1ccc(Nc2nc3ccccc3n3cccc23)cc1 | > 100 µM (inactive) | 35 µM (inactive) | > 100 µM (inactive) | < 0.01 µM (active) | 25.7 µM (inactive) | 52.7 µM (inactive) | 36.7 µM (inactive) | 46.6 µM (inactive) | 28.1 µM (inactive) | 50.2 µM (inactive) | 36 µM (inactive) | 3.27 µM (inactive) | 84.7 µM (inactive) | 38.1 µM (inactive) | 70 µM (inactive) | 47.8 µM (inactive) | 34.6 µM (inactive) | 12.8 µM (inactive) | 9.57 µM (inactive) | 34.8 µM (inactive)
